Measured values from patent publication US9458140B2, “Furanone compounds as kinase inhibitors” (Eternity Bioscience Inc., priority 2013, dated 2016).

Legend:
A375 cells = experiment: Cell proliferation assay (CellTiter-Glo), A375 cell growth; type: cell-based; settings: 3-day treatment
Protocol: Cell proliferation assay: A375, Colo-205, Calu-6, and SW-480 cells were purchased from American Type Culture Collection (USA). All cells were cultured in the recommended medium and serum concentration. Cells were maintained at 37° C. in a humidified atmosphere with 5% CO2. For cell proliferation assay, cells were seeded in 96-well pates at a density of 1,000 to 5,000 cells per well and cultured overnight at 37° C. in a medium supplemented with 5-10% FBS. On the next day, the test articles at various concentrations or vehicle control (1% DMSO) were added into cell culture. After 3-day treatment, the growth of cells was assayed by the CellTiter-Glo® Luminestceaent Cell Viability Assay (Promega). IC50 value was calculated using GraphPad Prism by plotting the logarithm of the concentration versus percent inhibition of cell growth.

BRAF^V600E = BRAF^V600E (Homo sapiens (Human), UniProt P15056, V600E); experiment: BRAF^V600E enzymatic activity assay (LanthaScreen kinase assay); type: biochemical; settings: LanthaScreen TR-FRET, ATP 2 μM, 60 minutes, room temperature; read-out: BRAF^V600E Lantha IC50
BRAF^V600E, sequence (P15056 whole entry V600E): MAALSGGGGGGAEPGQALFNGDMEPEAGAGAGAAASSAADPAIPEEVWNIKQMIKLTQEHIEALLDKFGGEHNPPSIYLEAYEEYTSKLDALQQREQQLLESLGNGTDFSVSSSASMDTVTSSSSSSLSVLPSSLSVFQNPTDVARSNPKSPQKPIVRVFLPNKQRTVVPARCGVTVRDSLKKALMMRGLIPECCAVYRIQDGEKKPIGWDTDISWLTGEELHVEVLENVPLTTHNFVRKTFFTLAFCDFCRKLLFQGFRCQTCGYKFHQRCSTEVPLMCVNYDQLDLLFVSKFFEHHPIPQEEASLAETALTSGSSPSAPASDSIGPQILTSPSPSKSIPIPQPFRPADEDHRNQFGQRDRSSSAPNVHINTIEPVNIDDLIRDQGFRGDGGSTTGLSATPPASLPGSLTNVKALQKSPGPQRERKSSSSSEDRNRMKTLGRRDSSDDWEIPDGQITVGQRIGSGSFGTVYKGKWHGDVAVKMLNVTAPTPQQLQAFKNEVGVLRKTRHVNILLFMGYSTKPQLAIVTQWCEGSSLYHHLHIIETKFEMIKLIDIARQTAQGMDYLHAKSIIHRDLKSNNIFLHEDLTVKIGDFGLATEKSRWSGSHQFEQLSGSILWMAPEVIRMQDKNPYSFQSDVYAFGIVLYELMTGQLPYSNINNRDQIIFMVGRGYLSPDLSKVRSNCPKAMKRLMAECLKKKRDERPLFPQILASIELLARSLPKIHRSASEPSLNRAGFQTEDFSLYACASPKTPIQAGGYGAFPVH
Protocol: BRAF^V600E enzymatic activity assay: The BRAF^V600E enzymatic assay was performed using a LanthaScreen kinase assay kit purchased from Life Technologies (Grand Island, N.Y.). The assay was conducted according to the procedure provided in the assay kit. […] The final reaction volume for each reaction was 10 μl. The reaction was stopped by addition of 10 μl of TR-FRET dilution buffer kinase supplemented with kinase quench buffer (10 mM final) and Tb-anti-pMAP2K1 (2 nM final). […] IC50 value was calculated using appropriate programs in GraphPad Prism by plotting the logarithm of the concentration versus percent inhibition.

Compound | IC50 (A375 cells; Homo sapiens, A-375, 72 h) [nM] | IC50 (BRAF^V600E) [nM] | IC50 (A375 cells) [nM]
COC(=O)N[C@@H](C)CNc1nccc(C2=C(c3cccc(NS(=O)(=O)c4c(F)cccc4F)c3F)C(=O)C(C)(C)O2)n1 [Example 2] | 630 | 97 | 
CC1(C)OC(c2ccnc(NCCC#N)n2)=C(c2cccc(NS(=O)(=O)c3c(F)cccc3F)c2F)C1=O [Example 3] | 470 | 13 | 
Nc1nccc(C2=C(c3cccc(NS(=O)(=O)c4c(F)cccc4F)c3F)C(=O)C3(CCCC3)O2)n1 [Example 4] | 510 |  | 
CC(C)CC1(C)OC(c2ccnc(N)n2)=C(c2cccc(NS(=O)(=O)c3c(F)cccc3F)c2F)C1=O (stereo not drawn) [Example 5] | 2300 | 92 | 
CC(C)CC1(C)OC(c2ccnc(NCCC#N)n2)=C(c2cccc(NS(=O)(=O)c3c(F)cccc3F)c2F)C1=O (stereo not drawn) [Example 6] | 12000 | 9.6 | 
COC(=O)N[C@@H](C)CNc1nccc(C2=C(c3cccc(NS(=O)(=O)c4c(F)cccc4F)c3F)C(=O)C(C)(CC(C)C)O2)n1 (stereo partly drawn) [Example 7] | 870 | 27 | 
CC(C)CC1(C)OC(c2ccnc(NCc3nccs3)n2)=C(c2cccc(NS(=O)(=O)c3c(F)cccc3F)c2F)C1=O (stereo not drawn) [Example 8] | 27000 | 260 | 
CC(C)CC1(C)OC(c2ccnc(NC[C@@H]3CCCN3)n2)=C(c2cccc(NS(=O)(=O)c3c(F)cccc3F)c2F)C1=O (stereo partly drawn) [Example 9] |  | 2000 | 
CC(C)CC1(C)OC(c2ccnc(NCC3CCCO3)n2)=C(c2cccc(NS(=O)(=O)c3c(F)cccc3F)c2F)C1=O (stereo not drawn) [Example 10] |  | 750 | 
CC1(C)OC(c2ccnc(N)n2)=C(c2cc(Cl)cc(NS(=O)(=O)c3c(F)cccc3F)c2F)C1=O [Example 11] | 18 |  | 
CC1(C)OC(c2ccnc(N)n2)=C(c2cc(Cl)cc(NS(=O)(=O)c3cc(F)ccc3F)c2F)C1=O [Example 12] | 1.4 | 0.6 | 
CC1(C)OC(c2ccnc(N)n2)=C(c2cc(Cl)cc(NS(=O)(=O)c3ccc(F)cc3F)c2F)C1=O [Example 13] | 350 |  | 
CC1(C)OC(c2ccnc(N)n2)=C(c2cc(Cl)cc(NS(=O)(=O)c3cccc(F)c3)c2F)C1=O [Example 14] | 120 | 1.2 | 
CC1(C)OC(c2ccnc(N)n2)=C(c2cc(Cl)cc(NS(=O)(=O)c3ccccc3F)c2F)C1=O [Example 15] | 110 | 2.5 | 
CCCS(=O)(=O)Nc1cc(Cl)cc(C2=C(c3ccnc(N)n3)OC(C)(CC(C)C)C2=O)c1F (stereo not drawn) [Example 16] | 250 | 70 | 
Nc1nccc(C2=C(c3cccc(NS(=O)(=O)c4c(F)cccc4F)c3Cl)C(=O)C3(CCCC3)O2)n1 [Example 17] | 150 | 3.7 | 
Nc1nccc(C2=C(c3cc(Cl)cc(NS(=O)(=O)c4c(F)cccc4F)c3Cl)C(=O)C3(CCCC3)O2)n1 [Example 18] | 7 | 2.4 | 
CC(C)CC1(C)OC(c2ccnc(N)n2)=C(c2cc(Cl)cc(NS(=O)(=O)c3c(F)cccc3F)c2F)C1=O (stereo not drawn) [Example 19] | 41 | 27 | 
CC(C)CC1(C)OC(c2ccnc(NCCC#N)n2)=C(c2cc(Cl)cc(NS(=O)(=O)c3c(F)cccc3F)c2F)C1=O (stereo not drawn) [Example 20] | 160 | 29 | 
CC1(C)OC(c2ccnc(NCCC#N)n2)=C(c2cc(Cl)cc(NS(=O)(=O)c3c(F)cccc3F)c2F)C1=O [Example 21] | 200 | 2.5 | 
COC(=O)N[C@@H](C)CNc1nccc(C2=C(c3cc(Cl)cc(NS(=O)(=O)c4cc(F)ccc4F)c3F)C(=O)C(C)(C)O2)n1 [Example 22] | 180 | 50 | 
CC1(C)OC(c2ccnc(NCCC#N)n2)=C(c2cc(Cl)cc(NS(=O)(=O)c3cc(F)ccc3F)c2F)C1=O [Example 23] | 51 | 13 | 
C[C@H](O)CNc1nccc(C2=C(c3cc(Cl)cc(NS(=O)(=O)c4cc(F)ccc4F)c3F)C(=O)C(C)(C)O2)n1 [Example 24] | 410 | 24 | 
CC1(C)OC(c2ccnc(NCCO)n2)=C(c2cc(Cl)cc(NS(=O)(=O)c3cc(F)ccc3F)c2F)C1=O [Example 25] | 160 | 11 | 
COCCNc1nccc(C2=C(c3cc(Cl)cc(NS(=O)(=O)c4cc(F)ccc4F)c3F)C(=O)C(C)(C)O2)n1 [Example 26] | 260 | 50 | 
CCNc1nccc(C2=C(c3cc(Cl)cc(NS(=O)(=O)c4cc(F)ccc4F)c3F)C(=O)C(C)(C)O2)n1 [Example 27] | 320 | 2.8 | 
Nc1nccc(C2=C(c3cc(Cl)cc(NS(=O)(=O)c4cc(F)ccc4F)c3F)C(=O)C3(CCCC3)O2)n1 [Example 28] |  | 2.6 | 11
Nc1nccc(C2=C(c3cc(Cl)cc(NS(=O)(=O)c4c(F)cccc4F)c3F)C(=O)C3(CCCC3)O2)n1 [Example 29] |  | 1.3 | 18
